From patent US20040123344A1, “Novel gene encoding an f-box protein which regulates leaf longevity in arabidopsis thaliana and mutant gene thereof” (priority 2000, published 2004)

B1: GAL4-AD fusion of ASK1(1-160), expressed from pGAD424-ASK1(1-160) [3] (other, Arabidopsis, UniProt Q39255 1-160, looked up, not shown: large carriers)
chain: MSAKKIVLKSSDGESFEVEEAVALESQTIAHMVEDDCVDNGVPLPNVTSKILAKVIEYCKRHVEAAASKAEAVEGAATSDDDLKAWDADFMKIDQATLFELILAANYLNIKNLLDLTCQTVADMIKGKTPEEIRTTFNIKNDFTPEEEEEVRRENQWAFE
notes: range 1-160; also called Arabidopsis SKP1 homolog 1; pGAD-ASK1(1-160)[3]
B2: GST-ASK1 fusion protein (other, Arabidopsis, UniProt Q39255 1-160, looked up, not shown: a dimerising Fc or GST)
chain: B1 chain
notes: also called GSK-ASK1
B3: GAL4-AD fusion of ASK2(1-172), expressed from pGAD424-ASK2(1-172) [4] (other, Arabidopsis, UniProt Q9FHW7 1-171, looked up, not shown: large carriers)
chain: MSTVRKITLKSSDGENFEIDEAVALESQTIKHMIEDDCTDNGIPLPNVTSKILSKVIEYCKRHVEAAEKSETTADAAAATTTTTVASGSSDEDLKTWDSEFIKVDQGTLFDLILAANYLNIKGLLDLTCQTVADMIKGKTPEEIRKTFNIKNDFTPEEEEEVRRENQWAFE
notes: range 1-172; Yeast two-hybrid prey; also called Arabidopsis SKP1 homolog 2

How the values were obtained:
[1] = system: wild type Arabidopsis thaliana leaves; experiment: Phytohormone treatment of detached leaves, photosynthetic activity (Fv/Fm of PSII); assay type: in vivo; settings: detached leaves at 12 DAE, 50 μM ABA or 50 μM MeJA in MES buffer pH 5.8, or 4.5 μM ethylene gas, three days at 22° C., continuous light
Method: (§1) In order to measure photosynthetic activities, a method of Oh S. A. et al., (Oh S. A. et al., Plant Mol. Biol. 30: 939, 1996) was used. First, the respective leaves were dark-treated for 15 minutes and measured for fluorescence of chlorophylls using a plant efficiency analyzer. The photosynthetic activity was expressed as photochemical efficiency of photosystemII (PSII) using a fluorescent property of chlorophylls. The photochemical efficiency was expressed as the ratio of maximum variable fluorescence (Fv) to maximum value of fluorescence (Fm) (Fv/Fm). As the ratio is increased, the photosynthesis efficiency improves.
(§2) Although senescence of leaves is known as a genetic programmed process, the initiation and progress of senescence can be changed by phytohormones, such as abscisic acid (ABA), methyl jasmonate (MeJA) and ethylene, that are plant growth inhibitory substances (Hensel et al., Plant Cell 5:553, 1993; Weidhase et al., Physiol. Plant 69:161, 1987; and Zeevaart et al, Annu. Rev. Plant Physiol. Plant Mol. Biol. 39:439, 1998). Thus, in this experiment, a change in leaf longevity of the ore9 mutant according to treatment with phytohormones was examined by measuring changes in photosynthetic activity and chlorophyll content. Detached leaves were floated in 3 mM 2-[N-morpholino]-ethanesulfonic acid (MES) buffer, pH 5.8, containing 50 μM ABA or 50 μM MeJA, while continuously being exposed to light. Treatment with ethylene was carried out by cultivation in a glass box containing 4.5 μM ethylene gas. The treatments with phytohormones as described above were carried out for three days at 22° C. with continuous exposure to light. At this time, 12 independent leaves at 12 DAE were used as samples, and the chlorophyll content and the photosynthetic activity were measured in the same manner as in Example 2.

[2] = system: ore9 mutant leaves; assay type: in vivo, Arabidopsis thaliana; settings: detached leaves at 12 DAE, 50 μM ABA or 50 μM MeJA in MES buffer pH 5.8, or 4.5 μM ethylene gas, three days at 22° C., continuous light
Method: as §1, §2

[3] = target: T1, GAL4-BD fusion of ORE9 (50-693), expressed from pGBT9-ORE9 (50-693) [2] (Arabidopsis thaliana); experiment: yeast two-hybrid assay
T1 construct: Yeast two-hybrid bait expressed in yeast HF7c; also called ORE9 derivative from which the F-box region was removed

[4] = target: T2, 35S-labeled ORE9 (50-693), in vitro translated (Arabidopsis thaliana, UniProt Q9SIM9 50-693); experiment: in vitro GST pull-down of 35S-labeled protein
T2 sequence: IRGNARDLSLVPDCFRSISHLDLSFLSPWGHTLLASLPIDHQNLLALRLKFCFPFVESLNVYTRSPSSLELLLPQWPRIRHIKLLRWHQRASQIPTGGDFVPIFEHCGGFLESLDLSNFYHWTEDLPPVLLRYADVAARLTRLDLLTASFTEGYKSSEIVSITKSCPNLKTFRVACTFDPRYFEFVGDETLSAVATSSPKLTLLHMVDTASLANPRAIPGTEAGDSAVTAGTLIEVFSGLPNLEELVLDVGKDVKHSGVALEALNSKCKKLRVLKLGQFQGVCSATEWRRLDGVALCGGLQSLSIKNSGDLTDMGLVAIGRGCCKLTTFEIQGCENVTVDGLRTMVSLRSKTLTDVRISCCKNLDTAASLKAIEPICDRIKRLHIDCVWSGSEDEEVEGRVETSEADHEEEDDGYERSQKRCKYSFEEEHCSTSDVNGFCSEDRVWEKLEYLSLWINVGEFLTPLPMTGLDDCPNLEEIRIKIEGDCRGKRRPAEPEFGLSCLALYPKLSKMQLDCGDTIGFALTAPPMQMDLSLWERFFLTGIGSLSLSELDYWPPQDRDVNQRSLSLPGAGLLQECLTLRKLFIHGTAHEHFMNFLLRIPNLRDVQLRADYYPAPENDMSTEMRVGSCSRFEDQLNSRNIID
Source text: In order to examine that ORE9 protein or derivatives thereof directly bind with ASK1, a GST-ASK1 fusion protein and a ³⁵S-labeled ORE9 protein produced by in vitro translation were subjected to in vitro binding assay. To obtain a glutathione S-transferase (GST) protein and a GST-ASK1 fusion protein, a vector pGEX (APBiotech, Co.) and a vector pGEX-ASK1 were constructed, which express the above proteins, respectively. Artificial sequences represented by SEQ ID NO: 14 and SEQ ID NO: 15 were used as PCR primers to amplify a gene encoding the ASK1 fragment. The resulting PCR product was digested with EcoRI and NcoI restriction enzymes, and inserted into the restriction enzyme sites of the pGEX vector. Escherichia coli BL21(DE3) pLysS was transformed with the resulting two vectors, and GST and GST-ASK1 fusion proteins were expressed. The GST and GST-ASK1 fusion proteins were purified by chromatography with glutathione-Sepharose 4B beads. The purified proteins was subjected to electrophoresis with SDS-polyacryamide gets, dyed with Coomassie blue, and measured for their amount. […]
The proteins were quantitatively analyzed with SDS-PAGE and BAS radioanalytic imaging system (Japan). […]

[5] = target: T3, GAL4-BD fusion of ORE9 (1-49), expressed from pGBT9-ORE9 (1-49) [1] (Arabidopsis thaliana); experiment: yeast two-hybrid assay, combination [1+4]
T3 construct: Yeast two-hybrid bait expressed in yeast HF7c; also called fragment containing only the F-box region of ORE9; pGBT-ORE9(1-49)[1]

Row | Molecule | photosynthetic activity after treatment [1] [%] | photosynthetic ability maintained after treatment [2] [%] | other results
1 | C=C [ethylene] | 54 | 82 | –
2 | CC1=CC(=O)CC(C)(C)[C@@]1(O)/C=C/C(C)=C\C(=O)O [ABA, abscisic acid] | 65 | 93 | –
3 | CC/C=C\CC1C(=O)CCC1CC(=O)OC (stereo not drawn) [MeJA, methyl jasmonate] | 38 | 70 | –
4 | B1 | – | – | binding result [3]: no binding
5 | B2 | – | – | binding result [4]: no binding
6 | B3 | – | – | binding result [5]: no binding
